From patent US20030138470A1, “Fragrant composition having mosquito-repelling effect” (TAKASAGO INTERNATIONAL CORPORATION, priority 2001, published 2003)

System: adults of Culex pipiens pallen
Assay: Blood-sucking repelling test on forearms
Type: in vivo
Details: 1% test sample solution on forearms, 15 minutes exposure, 30° C., humidity 70%
Procedure: […] of 1% test sample solutions were prepared by dissolving 1 g of each of the fragrant compositions of Examples 1, 2 and 3, Comparative Example 3 (Pelargonium citrosum extract), and Comparative Example 4 (DEET) into 90 g of ethanol and adding 9 g of water.
On the sample solutions of Examples 1, 2 and 3 and Comparative Examples 3 and 4, a blood-sucking repelling test toward adults of Culex pipiens pallen was carried out, whereby strength of mosquito-repellency and persistency were compared.
The test was carried out in a constant-temperature room kept at a temperature of 30° C. and a humidity of 70%.
After 10 ml of each test sample solution was applied onto right and left forearms, each arm was entered for 15 minutes into a bag-shape wire netting having a size of 20 cm×15 cm in which 50 each of male and female mosquitoes which were 5 to 7 days after emergence were placed, whereby the mosquitoes were allowed to suck blood. This operation was repeatedly carried out 1 hour, 2 hours, 3 hours, 4 hours, and 6 hours after the sample application, the number of sucked places within the sucking time was counted, and repellency was calculated according to the following equation.
Repellency=[(X−Y)/X]×100(%)
X: the number of sucked places in the case that no test sample solution was applied.
Y: the number of sucked places in the case that a test sample solution was applied.

CCN(CC)C(=O)c1cccc(C)c1 [Comparative Example 4, N,N-Diethyl-m-toluamide]
100%: Repellency After 1 hour (1 hour after application) | Repellency After 2 hours (2 hours after application) | Repellency After 3 hours (3 hours after application) | Repellency After 4 hours (4 hours after application) | Repellency After 6 hours (6 hours after application)
